In PMC5577376 (Nature chemical biology, 2017):
Entries after “also recorded” stand apart in the source; their conditions may differ.

Experiments:
[1] = test system: cullin neddylation in HCC95 cells; assay: Cullin neddylation immunoblot, HCC95; assay type: cell-based, human; conditions: for Effect on levels of neddylated cullins: HCC95, 10 μM dosed at 0 and 24 hours, harvested at 48 hours
[2] = test system: levels of CRL substrates in HCC95 cells; assay: Immunoblot of cullin-RING ligase substrates, HCC95; assay type: cell-based, human
NEDD8 E1 enzyme = conditions: read-out: biochemical IC50; cited from earlier work
[3] = test system: cellular neddylation / ubiquitination; conditions: cited from earlier work
[4] = biological target: DCN1 (PONY domain) binding to N-terminally acetylated UBE2M peptide (Homo sapiens, UniProt Q96GG9)
Chain of DCN1 (PONY domain) binding to N-terminally acetylated UBE2M peptide (Q96GG9 60-248 limits assumed): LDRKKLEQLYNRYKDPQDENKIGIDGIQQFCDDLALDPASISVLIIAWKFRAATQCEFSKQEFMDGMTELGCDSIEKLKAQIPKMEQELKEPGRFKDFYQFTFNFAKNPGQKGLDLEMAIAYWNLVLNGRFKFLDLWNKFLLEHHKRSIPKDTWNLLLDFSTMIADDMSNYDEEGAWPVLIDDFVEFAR

[5] = biological target: DCN1-dependent neddylation from AcUBE2M to CUL2CTD-RBX1 (Homo sapiens, UniProt Q96GG9); assay type: biochemical
Chain of DCN1-dependent neddylation from AcUBE2M to CUL2CTD-RBX1 (Q96GG9 60-248 limits assumed): as above

DCN3 = biological target: T1, DCN3 (Homo sapiens, UniProt Q8IWE4); assay: Pulse-chase neddylation assay with DCN3; assay type: biochemical
T1 sequence (Q8IWE4 86-278 limits assumed): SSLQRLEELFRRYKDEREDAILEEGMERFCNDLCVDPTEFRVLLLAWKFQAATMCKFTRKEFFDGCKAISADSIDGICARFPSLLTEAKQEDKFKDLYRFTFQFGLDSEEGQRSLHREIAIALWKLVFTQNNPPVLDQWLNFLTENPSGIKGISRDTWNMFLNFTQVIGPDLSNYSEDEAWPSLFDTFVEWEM

DCN4 = biological target: T2, DCN4 (Homo sapiens, UniProt Q92564); assay: Pulse-chase neddylation assay with DCN4; assay type: biochemical
T2 sequence (Q92564 101-287 limits assumed): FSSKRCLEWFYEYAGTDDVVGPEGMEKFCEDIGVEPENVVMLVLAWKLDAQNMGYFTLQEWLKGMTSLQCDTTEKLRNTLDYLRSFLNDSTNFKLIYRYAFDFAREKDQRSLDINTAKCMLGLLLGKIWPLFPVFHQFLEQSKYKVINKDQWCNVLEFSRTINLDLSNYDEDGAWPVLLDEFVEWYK

DCN5 = biological target: T3, DCN5 (Homo sapiens, UniProt Q9BTE7); assay: Pulse-chase neddylation assay with DCN5; assay type: biochemical
T3 sequence (Q9BTE7 46-232 limits assumed): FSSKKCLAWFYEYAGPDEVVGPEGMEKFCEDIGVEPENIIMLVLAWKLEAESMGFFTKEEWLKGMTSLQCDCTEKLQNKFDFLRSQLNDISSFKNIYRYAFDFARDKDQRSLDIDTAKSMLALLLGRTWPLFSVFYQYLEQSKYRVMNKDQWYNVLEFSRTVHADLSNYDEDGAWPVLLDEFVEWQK

DCN1 = DCN1 (Homo sapiens, UniProt Q96GG9); assay: Covalent adduct formation by LC-TOF mass spectrometry, DCN1; assay type: binding; conditions: 30 μM PONY domain, 60 μM compound, overnight / 24-hour incubation
Chain of DCN1 (Q96GG9 60-248 limits assumed): as the sequence (Q96GG9 60-248 limits assumed) above

DCN2 PONY domain = DCN2 PONY domain (Homo sapiens, UniProt Q6PH85); assay: Covalent adduct formation by TOF mass spectrometry, DCN2; assay type: binding; conditions: 30 μM PONY domain, 60 μM compound, overnight
Chain of DCN2 PONY domain (Q6PH85 60-248 limits assumed): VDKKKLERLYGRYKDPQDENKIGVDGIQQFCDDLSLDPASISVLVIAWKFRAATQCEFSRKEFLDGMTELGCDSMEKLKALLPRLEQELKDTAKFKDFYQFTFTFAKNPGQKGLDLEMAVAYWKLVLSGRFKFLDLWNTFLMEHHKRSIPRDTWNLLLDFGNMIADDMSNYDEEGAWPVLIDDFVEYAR

DCN3 PONY domain = biological target: T4, DCN3 PONY domain (Homo sapiens, UniProt Q8IWE4); assay: Covalent adduct formation by TOF mass spectrometry, DCN3; assay type: binding; conditions: 30 μM PONY domain, 60 μM compound, overnight
T4 sequence (Q8IWE4 86-278 limits assumed): T1 sequence (Q8IWE4 86-278 limits assumed)

DCN4 PONY domain = biological target: T5, DCN4 PONY domain (Homo sapiens, UniProt Q92564); assay: Covalent adduct formation by TOF mass spectrometry, DCN4; assay type: binding; conditions: 30 μM PONY domain, 60 μM compound, overnight
T5 sequence (Q92564 101-287 limits assumed): T2 sequence (Q92564 101-287 limits assumed)

DCN5 PONY domain = biological target: T6, DCN5 PONY domain (Homo sapiens, UniProt Q9BTE7); assay: Covalent adduct formation by TOF mass spectrometry, DCN5; assay type: binding; conditions: 30 μM PONY domain, 60 μM compound, overnight
T6 sequence (Q9BTE7 46-232 limits assumed): T3 sequence (Q9BTE7 46-232 limits assumed)

C115A DCN1, C115G DCN1 = C115A DCN1, C115G DCN1 (Homo sapiens, UniProt Q96GG9, C115A); assay: Covalent adduct formation by TOF mass spectrometry, DCN1 Cys115 mutants; assay type: binding
Chain of C115A DCN1, C115G DCN1 (Q96GG9 62-259 C115A): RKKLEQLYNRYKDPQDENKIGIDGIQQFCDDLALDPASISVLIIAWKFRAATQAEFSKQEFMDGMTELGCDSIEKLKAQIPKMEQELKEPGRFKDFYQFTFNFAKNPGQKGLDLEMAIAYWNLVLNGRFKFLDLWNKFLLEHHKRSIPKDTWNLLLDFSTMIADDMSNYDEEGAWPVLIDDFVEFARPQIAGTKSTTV

[6] = test system: anchorage independent growth of HCC95 cells; assay: Soft agar colony formation assay; assay type: cell-based, human; conditions: 10 μM
[7] = test system: DCN1-independent NEDD8 ligation from AcUBE2M to CUL2CTD; assay: Pulse-chase assay, DCN1-independent neddylation; assay type: biochemical, human
[8] = biological target: UBE2M-DCN1 interaction in 293T cells (Homo sapiens, UniProt Q96GG9); assay: Co-immunoprecipitation of DCN1 with UBE2M-FLAG-HA in cells; assay type: cell-based; conditions: treated 24 hours
Chain of UBE2M-DCN1 interaction in 293T cells (Q96GG9 whole entry): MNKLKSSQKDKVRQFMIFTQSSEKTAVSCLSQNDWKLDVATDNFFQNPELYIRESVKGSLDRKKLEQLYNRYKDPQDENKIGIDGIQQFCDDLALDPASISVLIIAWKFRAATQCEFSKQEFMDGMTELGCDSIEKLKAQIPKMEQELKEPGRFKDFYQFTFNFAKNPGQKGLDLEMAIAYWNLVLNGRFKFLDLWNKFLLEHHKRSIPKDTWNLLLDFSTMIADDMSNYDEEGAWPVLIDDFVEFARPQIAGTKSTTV

DCN2 = DCN2 (Homo sapiens, UniProt Q6PH85); assay: Pulse-chase neddylation assay with DCN2; assay type: biochemical; conditions: 10 μM
Chain of DCN2 (Q6PH85 60-248 limits assumed): as the sequence (Q6PH85 60-248 limits assumed) above

[9] = test system: N-acetyl-UBE2M interactions in 293T cells; assay: AP-MS TMT interaction proteomics of UBE2M; assay type: cell-based, human
[10] = even at concentrations of 100 μM

NS(=O)(=O)OC[C@@H]1C[C@@H](n2ccc3c(N[C@H]4CCc5ccccc54)ncnc32)C[C@@H]1O [MLN4924]
Effect on neddylation in cells ([1]; single dose, 1 μM): eliminates all neddylation | Levels of CRL substrates ([2]; HCC95, MLN4924 1 μM): high-level accumulation | IC50 (NEDD8 E1 enzyme): 5 nM | concentration at which cell based activity is penetrant [3]: 0.3 to 1 µM | Reduction of total cellular ubiquitination ([3]; total blockade of neddylation): 10–20%

C=CC(=O)Nc1ccccc1CN(C(=O)Nc1cccc(C(F)(F)F)c1)C1CCN(C(C)CCC)CC1 (stereo not drawn) [NAcM-COV, N-(2-((1-(1-(pentan-2-yl)piperidin-4-yl)-3-(3-(trifluoromethyl)phenyl)ureido)methyl)phenyl)acrylamide]
Potency increase by electrophile, NAcM-COV versus NAcM-COVCTRL, TR-FRET [4]: > 30 fold | Potency increase by electrophile, NAcM-COV versus NAcM-COVCTRL, neddylation [5]: 2.5 fold | Activity towards DCN3 (DCN3; 50 μM): Partial activity | Activity towards DCN4 (DCN4; 50 μM): Partial activity | Inhibition of DCN5 (DCN5): lack of inhibition | Covalent adduct formation with DCN1 (DCN1): most effective; also recorded: corresponded to adducts | Covalent adduct formation with DCN2 (DCN2 PONY domain): corresponded to adducts | Covalent adduct formation with DCN3 (DCN3 PONY domain): corresponded to adducts | Covalent adduct formation with DCN4 (DCN4 PONY domain): Both modified and unmodified forms | Covalent adduct formation with DCN5 (DCN5 PONY domain): no evidence of covalent linkage | Covalent adduct formation with DCN1 Cys115 replaced by Ala or Gly (C115A DCN1, C115G DCN1): prevented covalent adduct formation | Effect on levels of neddylated cullins [1]: reduced levels of neddylated cullins; also recorded: most potent inhibition | Growth / colony formation of HCC95 cells in soft agar [6]: blocks growth

CCCC(C)N1CCC(N(Cc2ccccc2NC(=O)CC)C(=O)Nc2cccc(C(F)(F)F)c2)CC1 (stereo not drawn) [NAcM-COVCTRL, N-(2-((1-(1-(pentan-2-yl)piperidin-4-yl)-3-(3-(trifluoromethyl)phenyl)ureido)methyl)phenyl)propionamide]
Effect on levels of neddylated cullins [1]: relatively reduced potency

O=C(Nc1cccc(C(F)(F)F)c1)NC1CCN(Cc2ccccc2)CC1 [NAcM-HIT, 1-(1-benzylpiperidin-4-yl)-3-(3-(trifluoromethyl)phenyl)urea]
Inhibition of DCN1-independent NEDD8 ligation [7]: did not inhibit

CCCCN1CCC(N(Cc2ccccc2)C(=O)Nc2cccnc2)CC1 [NAcM-NEG, 1-benzyl-1-(1-butylpiperidin-4-yl)-3-(pyridin-3-yl)urea]
Effect on DCN1-UBE2M interaction by TR-FRET [4, 10]: no effect | Effect on neddylation by enzyme assays [5, 10]: no effect | Co-precipitation of DCN1 with UBE2M [8]: interaction was observed | Effect on levels of neddylated cullins [1]: no effect

CCCCN1CCC(N(Cc2ccccc2)C(=O)Nc2ccc(Cl)c(Cl)c2)CC1 [NAcM-OPT, 1-benzyl-1-(1-butylpiperidin-4-yl)-3-(3,4-dichlorophenyl)urea]
Enhanced potency relative to NAcM-HIT, TR-FRET [4]: 100 fold | Increased potency toward the neddylation reaction relative to NAcM-HIT [5]: 25 fold | Inhibition of DCN2-stimulated neddylation (DCN2): inhibited | Activity toward DCN3 (DCN3; 10 μM): no activity | Activity toward DCN4 (DCN4; 10 μM): no activity | Activity toward DCN5 (DCN5; 10 μM): no activity | Fold decrease in UBE2M binding: CUL3 [9]: 1.9 fold | Fold decrease in UBE2M binding: CUL5 [9]: 3.2 fold | Fold decrease in UBE2M binding: DCN1 [9]: ≈ 8 fold | Effect on levels of neddylated cullins [1]: reduced levels of neddylated cullins | Levels of CRL substrates ([2]; HCC95, 10 μM): Neither NAcM-OPT treatment nor DCN1 shRNA stabilizes | Growth / colony formation of HCC95 cells in soft agar [6]: blocks growth
